Source: patent US4968826A, “Platinum complexes and antitumor agents containing them as an active ingredient” (Shionogi & Co., Ltd., priority 1989, dated 1990)

What was measured:
L1210 = assay: Antitumor effect (ILS) in mice inoculated i.p. with murine leukemia L1210; type: in vivo, murine leukemia cells in BDF1 mice; settings: for Number of mice survived 30 days or longer: of 7 mice; for chemotherapy index (CI): from ILS30 and ILSmax, the greater, the more effective; for ILS30 (dose of achieving 30% ILS) / ILS max (dose of achieving the maximum ILS): i.p.
Text: (§1) Antitumor activities against murine leukemia cells (L1210) and cisplatin-resistant murine leukemia cells (L1210/CDDP):
(§2) Murine leukemia L1210 (or L1210/CDDP) ascitic cells (1×10^5 cells) (5×10^5 cells for L1210/CDDP) were intraperitoneally inoculated to BDF1 mice (each group consisting 6~10 mice), and on the next day a predetermined amount of the test compound was intraperitoneally administered. 0.9% physiological saline was used as a solvent for injection.
(§3) From the average survival days (a) in each test group and those (b) of the non-treated control group, the increase of lifespan (ILS) was calculated according to the following formula. [formula]
(§4) As compared with the non-treated control group, the dose of achieving 30% ILS (ILS30) and the dose of achieving the maximum ILS (ILSmax) were obtained, from which the chemotherapy index (CI) was calculated. [formula]

L1210/CDDP = assay: Antitumor effect (ILS) in mice inoculated i.p. with cisplatin-resistant murine leukemia L1210/CDDP; type: in vivo, murine leukemia cells in BDF1 mice; settings: for Number of mice surviving 30 days or longer: A: of 6 mice; for chemotherapy index (CI): from ILS30 and ILSmax, the greater, the more effective; for ILS30 (dose of achieving 30% ILS) / ILSmax (dose of achieving the maximum ILS): i.p.
Text: as §1, §2, §3, §4

[1] = system: platelets in peripheral blood; assay: Hemotoxicity: platelet count (PLT) in peripheral blood; type: in vivo, male CDF1 mice; settings: 7 days after
Text: (§5) Influence against murine nucleated bone marrow cell count, megakaryocyte count and platelet count in peripheral blood:
(§6) After a single intravenous administration of test compounds to male CDF1 mice (7 weeks old), hemotoxicity was investigated by counting the nucleated bone marrow cell in femora (NBMC), megakaryocyte (MEG) and platelet (PLT) in peripheral blood. Measuring timing was taken when the three indices reached the minimal value, namely 4 days after administration for NBMC, and 7 days after for MEG and PLT.
(§7) Changes in the counts of nucleated bone marrow cells (NBMC), megakaryocytes (MEG) and platelets (PLT) in peripheral blood induced by administration of the test compounds are shown as hemotoxicity, expressed as the ratio of the value of each index in the test group to that of the non-treated conrol group as a percentage.

[2] = system: murine nucleated bone marrow cells; assay: Hemotoxicity: nucleated bone marrow cell count (NBMC) in femora; type: in vivo, male CDF1 mice; settings: 4 days after
Text: as §5, §6, §7

Colon tumor 38 = assay: Antitumor activity against Colon tumor 38 transplanted in mice; type: in vivo, BDF1 mice; settings: for ED 50 (dose of 50% growth inhibition in the mean tumor size): i.v. on next day and 8th day after; for chemotherapy index (CI): from ED50 and LD50, the greater, the more effective
Text: Antitumor activity against Colon tumor 38:
A tumor segment of Colon tumor 38 was transplanted beneath the dorsal skin of BDF1 mice (6 to 10 mice in each group), and the test compounds were intravenously administered on the next day and on the 8th day after the next day, respectively. As solvent for injection, 0.9% physiological saline was used.
Test Compounds A, C, D and E were same as those used in Experiment 1.

megakaryocytes = assay: Hemotoxicity: megakaryocyte count (MEG); type: in vivo, male CDF1 mice; settings: 7 days after
Text: as §5, §6, §7

kidneys = assay: Evaluation of nephrotoxicity in mice; type: in vivo, male CDF1 mice; settings: for Creatinine / Urea nitrogen: mouse, in vivo, iv
Procedure: Evaluation of nephrotoxicity in mice:
After a single intravenous administration of Test Compound A to male CDF1 mice (6 weeks old) at a rate of 160 or 320 mg/kg*, the levels of creatinine and urea nitrogen in plasma were measured. The mice were presented for pathological examination of kidneys four days after administration. (*: 320 mg/kg would be a lethal dose if the observation period was further extended.)

[3] = 30.0 mg/kg (1/6 LD90) single i.v.

(1R,2R-Diaminocyclohexane)[1-hydroxy-1-cyclopropanecarboxylato(2-)-O^1,O^2 ]platinum (II) [Test Compound B]
Solubility in water: 30 mg/mL | increase of lifespan (ILS) (L1210; 10 mg/kg i.p.): 10% | increase of lifespan (ILS) (L1210; 20 mg/kg i.p.): 21% | increase of lifespan (ILS) (L1210; 40 mg/kg i.p.): 22% | increase of lifespan (ILS) (L1210; 80 mg/kg i.p.): 66% | increase of lifespan (ILS) (L1210; 160 mg/kg i.p.): > 83% | Number of mice survived 30 days or longer (L1210; 160 mg/kg i.p.): 2 | chemotherapy index (CI) (L1210): 3.6 | ILS30 (dose of achieving 30% ILS) (L1210): 45 mg/kg | ILS max (dose of achieving the maximum ILS) (L1210): 160 mg/kg | increase of lifespan (ILS) (L1210/CDDP; 5 mg/kg i.p.): 6% | increase of lifespan (ILS) (L1210/CDDP; 10 mg/kg i.p.): 14% | increase of lifespan (ILS) (L1210/CDDP; 20 mg/kg i.p.): 4% | increase of lifespan (ILS) (L1210/CDDP; 40 mg/kg i.p.): > 93% | Number of mice surviving 30 days or longer (L1210/CDDP; 40 mg/kg i.p., B: of 7 mice): 3 | increase of lifespan (ILS) (L1210/CDDP; 80 mg/kg i.p.): > 179% | Number of mice surviving 30 days or longer (L1210/CDDP; 80 mg/kg i.p., B: of 7 mice): 6 | increase of lifespan (ILS) (L1210/CDDP; 160 mg/kg i.p.): -16% | chemotherapy index (CI) (L1210/CDDP): 3.3 | ILS30 (dose of achieving 30% ILS) (L1210/CDDP): 24 mg/kg | ILSmax (dose of achieving the maximum ILS) (L1210/CDDP): 80 mg/kg

N.N.O=C([O-])C1(C(=O)[O-])CCC1.[Pt+2] [Test Compound E, Carboplatin]
Hemotoxicity PLT (ratio to non-treated control) [1, 3]: 89 percentage | Hemotoxicity PLT (ratio to non-treated control) ([1]; 60.0 mg/kg single i.v.): 65 percentage | Hemotoxicity PLT (ratio to non-treated control) ([1]; 120.0 mg/kg single i.v.): 35 percentage | Solubility in water: 16 mg/mL | Hemotoxicity NBMC (ratio to non-treated control) [2, 3]: 78 percentage | Hemotoxicity NBMC (ratio to non-treated control) ([2]; 60.0 mg/kg single i.v.): 75 percentage | Hemotoxicity NBMC (ratio to non-treated control) ([2]; 120.0 mg/kg single i.v.): 28 percentage | ILS30 (dose of achieving 30% ILS) (L1210/CDDP): ineffective | ED 50 (dose of 50% growth inhibition in the mean tumor size) (Colon tumor 38): Ineffective | Hemotoxicity MEG (ratio to non-treated control) (megakaryocytes; [3]): 60 percentage | Hemotoxicity MEG (ratio to non-treated control) (megakaryocytes; 60.0 mg/kg single i.v.): 45 percentage | Hemotoxicity MEG (ratio to non-treated control) (megakaryocytes; 120.0 mg/kg single i.v.): 8 percentage

(1R,2R-Diaminocyclohexane)[1-hydroxy-1-cyclopentanecarboxylato(2-)-O^1,O^2 ]platinum (II) [Test Compound A]
Solubility in water: > 500 mg/mL | Hemotoxicity NBMC (ratio to non-treated control) ([2]; 31.0 mg/kg single i.v.): 108 percentage | Hemotoxicity NBMC (ratio to non-treated control) ([2]; 62.0 mg/kg (1/5 LD90) single i.v.): 87 percentage | increase of lifespan (ILS) (L1210; 5 mg/kg i.p.): 10% | increase of lifespan (ILS) (L1210; 10 mg/kg i.p.): 16% | increase of lifespan (ILS) (L1210; 20 mg/kg i.p.): 19% | increase of lifespan (ILS) (L1210; 40 mg/kg i.p.): 37% | Number of mice survived 30 days or longer (L1210; 40 mg/kg i.p.): 1 | increase of lifespan (ILS) (L1210; 80 mg/kg i.p.): > 81% | Number of mice survived 30 days or longer (L1210; 80 mg/kg i.p.): 3 | increase of lifespan (ILS) (L1210; 160 mg/kg i.p.): > 168% | Number of mice survived 30 days or longer (L1210; 160 mg/kg i.p.): 1 | increase of lifespan (ILS) (L1210; 320 mg/kg i.p.): 14% | chemotherapy index (CI) (L1210): 5.2 | ILS30 (dose of achieving 30% ILS) (L1210): 31 mg/kg | ILS max (dose of achieving the maximum ILS) (L1210): 160 mg/kg | Creatinine (kidneys; 160 mg/kg): 0.26 | Urea nitrogen (kidneys; 160 mg/kg): 22.6 mg/dL | Creatinine (kidneys; 320 mg/kg): 0.27 | Urea nitrogen (kidneys; 320 mg/kg): 23.3 mg/dL | lethal dose (kidneys; single i.v., male CDF1 mice, if the observation period was further extended): 320 mg/kg | increase of lifespan (ILS) (L1210/CDDP; 5 mg/kg i.p.): 1% | increase of lifespan (ILS) (L1210/CDDP; 10 mg/kg i.p.): 5% | increase of lifespan (ILS) (L1210/CDDP; 20 mg/kg i.p.): > 50% | Number of mice surviving 30 days or longer (L1210/CDDP; 20 mg/kg i.p.): 2 | increase of lifespan (ILS) (L1210/CDDP; 40 mg/kg i.p.): > 56% | Number of mice surviving 30 days or longer (L1210/CDDP; 40 mg/kg i.p., B: of 7 mice): 2 | increase of lifespan (ILS) (L1210/CDDP; 80 mg/kg i.p.): > 110% | Number of mice surviving 30 days or longer (L1210/CDDP; 80 mg/kg i.p., B: of 7 mice): 4 | increase of lifespan (ILS) (L1210/CDDP; 160 mg/kg i.p.): 1% | chemotherapy index (CI) (L1210/CDDP): 5.5 | ILS30 (dose of achieving 30% ILS) (L1210/CDDP): 14.5 mg/kg | ILSmax (dose of achieving the maximum ILS) (L1210/CDDP): 80 mg/kg | chemotherapy index (CI) (Colon tumor 38): 2.7 | ED 50 (dose of 50% growth inhibition in the mean tumor size) (Colon tumor 38): 164.9 mg/kg

(1R,2R-Diaminocyclohexane)[2-hydroxy-2-methylbutyrato(2-)-O^1, O^2 -]platinum (II) [Test Compound C]
chemotherapy index (CI) (Colon tumor 38): 4.3 | ED 50 (dose of 50% growth inhibition in the mean tumor size) (Colon tumor 38): 106.2 mg/kg

N.N.[Cl][Pt][Cl] [Test Compound D, Cisplatin, reference compound]
ILS30 (dose of achieving 30% ILS) (L1210): 2.7 mg/kg | ILS max (dose of achieving the maximum ILS) (L1210): 10 mg/kg | ILS30 (dose of achieving 30% ILS) (L1210/CDDP): ineffective | ED 50 (dose of 50% growth inhibition in the mean tumor size) (Colon tumor 38): 18.3 mg/kg
